From ChEMBL document CHEMBL1201862, “PubChem BioAssay data set” (2004)
Active and inactive are the calls of the source.

Columns and labels:
INS1 = assay: INS-1E survival protection against cytokine death – cell-based, luminescence, retest, dose response (AID 449756); assay type: functional; details: Rattus norvegicus;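 note: cell death triggered by IL-1 beta plus TNF-alpha plus IFN-gamma mixture; protective hits raise ATP signal compared with cytokine alone wells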
[1] = reduction of Shn3 3'UTR-driven luciferase in osteoblasts – cell-based, Clone20 osteoblasts, firefly luciferase, cherry-picked, dose response (AID 624132); assay type: functional;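 note: firefly luciferase luminescence from reporter carrying the Shn3 3'UTR in osteoblasts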
[2] = loss of viability in HepG2 cells – cell-based, CellTiter-Glo, cherry-picked, cytotoxicity control for Shn3 inhibitor project, dose response (AID 624134); assay type: functional
[3] = non-specific 3'UTR reporter inhibition in Clone20-Shn3RL – cell-based, Renilla luciferase, cherry-picked, counter-screen for Shn3 inhibitor project, dose response (AID 624133); assay type: functional
H9c2 = assay: cells; assay type: functional, cell-based; details: Rattus norvegicus, H9c2, Myocardium;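 note: confirmatory concentration-response retest of ultra-high-throughput screening hits for modulation of myocardial damage; cell death induced by hydrogen peroxide oxidative stress; compound pretreatment for 60 min then peroxide exposure for 2 h; potency is for protecting the cells against peroxide damage rather than for killing them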
[4] = target: T1, Corticotropin-releasing factor receptor 2/Corticotropin-releasing factor-binding protein (Homo sapiens, UniProt P24387+Q13324); assay: Dose Response confirmation of uHTS hits for small molecule antagonists of the CRF-binding protein and CRF-R2 receptor complex.; assay type: functional; details: read-out: IC50_Mean
T1 sequence (Q13324 whole entry): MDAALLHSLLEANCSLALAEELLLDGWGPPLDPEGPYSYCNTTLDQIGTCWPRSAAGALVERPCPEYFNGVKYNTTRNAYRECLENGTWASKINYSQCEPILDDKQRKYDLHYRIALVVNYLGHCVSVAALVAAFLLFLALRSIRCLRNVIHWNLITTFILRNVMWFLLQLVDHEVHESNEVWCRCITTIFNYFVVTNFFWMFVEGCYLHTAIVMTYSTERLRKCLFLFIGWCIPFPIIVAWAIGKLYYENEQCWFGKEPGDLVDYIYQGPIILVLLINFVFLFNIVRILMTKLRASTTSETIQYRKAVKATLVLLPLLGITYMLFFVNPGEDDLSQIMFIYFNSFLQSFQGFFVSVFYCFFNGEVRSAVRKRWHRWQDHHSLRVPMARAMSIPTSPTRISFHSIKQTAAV
T1 sequence (P24387 whole entry): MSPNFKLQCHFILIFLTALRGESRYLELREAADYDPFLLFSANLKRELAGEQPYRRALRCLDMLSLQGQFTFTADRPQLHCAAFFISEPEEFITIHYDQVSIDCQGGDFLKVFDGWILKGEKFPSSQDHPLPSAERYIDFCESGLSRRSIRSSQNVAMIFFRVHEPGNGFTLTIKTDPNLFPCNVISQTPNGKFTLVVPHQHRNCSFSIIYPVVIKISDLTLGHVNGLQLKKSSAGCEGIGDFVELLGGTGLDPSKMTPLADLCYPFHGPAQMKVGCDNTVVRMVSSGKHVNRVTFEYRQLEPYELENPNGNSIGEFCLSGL

[5] = target: T1, Corticotropin-releasing factor receptor 2/Corticotropin-releasing factor-binding protein; assay: activators of CRF receptor 2 with binding protein – uHTS hits, confirmation (AID 602473); assay type: functional; details: read-out: EC50_Mean
Cytochrome P450 2C19 = Cytochrome P450 2C19 (Homo sapiens, UniProt P33261); assay: Cytochrome panel assay with activity outcomes. Panel member name: p450-cyp2c19 Compounds with AC50 equal or less than 10 uM are considered active; assay type: functional
Cytochrome P450 2D6 = Cytochrome P450 2D6 (Homo sapiens, UniProt P10635);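 note: CYP2D6 member of a cytochrome P450 panel assay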
Cytochrome P450 3A4 = Cytochrome P450 3A4 (Homo sapiens, UniProt P08684);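 note: CYP3A4 tested as one member of a cytochrome P450 panel screen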
[6] = Trypanosoma cruzi growth suppression in host cells – NIH3T3 host cells, beta-gal luminescence, confirmation (AID 2044); assay type: functional, cell-based;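 note: intracellular parasites grown in NIH/3T3 mouse fibroblasts as host cells; luminescent beta-galactosidase reporter signal from transgenic T. cruzi replicating inside host cells; inhibitors lower the luminescence signal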
[7] = NIH3T3 cell viability loss – ATP luminescence, mouse fibroblasts, counter-screen, dose response (AID 2010); assay type: functional, cell-based;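 note: cells exposed to compound for about 90 hours before reading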
Cytochrome P450 1A2 = target: T2, Cytochrome P450 1A2 (Homo sapiens, UniProt P05177);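 note: PubChem cytochrome P450 panel assay, CYP1A2 panel member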
T2 sequence (P05177 whole entry): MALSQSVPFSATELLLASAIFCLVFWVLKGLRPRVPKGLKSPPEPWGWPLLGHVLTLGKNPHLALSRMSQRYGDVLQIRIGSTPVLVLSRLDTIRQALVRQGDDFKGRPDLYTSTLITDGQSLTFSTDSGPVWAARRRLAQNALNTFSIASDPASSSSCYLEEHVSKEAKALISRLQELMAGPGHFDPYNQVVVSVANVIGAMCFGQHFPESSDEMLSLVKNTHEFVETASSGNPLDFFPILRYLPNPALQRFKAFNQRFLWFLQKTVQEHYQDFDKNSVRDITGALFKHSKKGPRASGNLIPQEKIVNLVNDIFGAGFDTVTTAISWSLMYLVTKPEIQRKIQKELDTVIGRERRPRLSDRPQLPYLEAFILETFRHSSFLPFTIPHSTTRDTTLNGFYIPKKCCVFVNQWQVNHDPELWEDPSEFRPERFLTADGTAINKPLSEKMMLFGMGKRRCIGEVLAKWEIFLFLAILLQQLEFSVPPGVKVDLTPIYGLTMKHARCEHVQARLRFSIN

[8] = system: Streptococcus sp. 'group A'; assay: Streptococcus pyogenes SK(-)GAS viability under kanamycin – luminescence, BacTiterGlo, confirmation, counter-screen for streptokinase expression inhibitor project, dose response (AID 1900); assay type: functional, organism-based
Streptokinase A = target: T3, Streptokinase A (Streptococcus pyogenes serotype M1, UniProt P10520); assay: viability-normalized secreted streptokinase activity reduction – plasminogen activation absorbance, OD405, dose response (AID 1914); assay type: functional, Streptococcus pyogenes M1 GAS;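 note: secreted streptokinase activity via plasminogen activation per viability signal from cell pellet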
T3 sequence (P10520 whole entry): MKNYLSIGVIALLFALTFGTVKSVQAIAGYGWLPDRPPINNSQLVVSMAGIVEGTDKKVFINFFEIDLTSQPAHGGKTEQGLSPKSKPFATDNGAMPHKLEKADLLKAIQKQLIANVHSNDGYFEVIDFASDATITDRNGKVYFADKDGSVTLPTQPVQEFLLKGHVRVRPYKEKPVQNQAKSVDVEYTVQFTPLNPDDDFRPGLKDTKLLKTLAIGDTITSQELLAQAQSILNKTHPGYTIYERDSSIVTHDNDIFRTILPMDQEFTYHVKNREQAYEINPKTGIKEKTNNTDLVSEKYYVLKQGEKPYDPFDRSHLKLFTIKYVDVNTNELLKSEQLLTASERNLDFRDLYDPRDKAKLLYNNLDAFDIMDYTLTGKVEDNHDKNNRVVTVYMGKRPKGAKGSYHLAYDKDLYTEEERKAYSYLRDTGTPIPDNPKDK

Streptococcus = assay: GAS UMAA2166 growth inhibition – luminescence, BacTiterGlo, counter-screen for streptokinase expression inhibitor project, dose response (AID 1915); assay type: functional, organism-based;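 note: potency for reduction of bacterial viability or growth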
Cytochrome P450 2C9 = Cytochrome P450 2C9 (Homo sapiens, UniProt P11712)
[9] = P. falciparum Dd2 growth inhibitors, dose response, SYBR Green, cherry-picked samples (AID 1159567); assay type: functional, cell-based

Chain of Cytochrome P450 2D6 (P10635 whole entry): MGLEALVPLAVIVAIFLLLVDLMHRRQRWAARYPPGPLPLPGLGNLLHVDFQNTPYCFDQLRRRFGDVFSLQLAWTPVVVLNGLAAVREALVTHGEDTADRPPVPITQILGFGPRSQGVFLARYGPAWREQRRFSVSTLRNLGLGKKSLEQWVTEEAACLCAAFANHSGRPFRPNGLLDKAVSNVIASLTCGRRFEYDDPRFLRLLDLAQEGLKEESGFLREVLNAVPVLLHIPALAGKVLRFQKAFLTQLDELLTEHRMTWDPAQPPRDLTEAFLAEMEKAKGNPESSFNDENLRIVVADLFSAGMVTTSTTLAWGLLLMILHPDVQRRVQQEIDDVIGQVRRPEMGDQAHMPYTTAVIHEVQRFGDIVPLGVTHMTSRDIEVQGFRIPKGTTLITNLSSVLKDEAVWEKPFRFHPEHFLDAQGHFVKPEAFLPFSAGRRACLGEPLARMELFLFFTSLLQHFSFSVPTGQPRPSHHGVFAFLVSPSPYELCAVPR
Chain of Cytochrome P450 3A4 (P08684 whole entry): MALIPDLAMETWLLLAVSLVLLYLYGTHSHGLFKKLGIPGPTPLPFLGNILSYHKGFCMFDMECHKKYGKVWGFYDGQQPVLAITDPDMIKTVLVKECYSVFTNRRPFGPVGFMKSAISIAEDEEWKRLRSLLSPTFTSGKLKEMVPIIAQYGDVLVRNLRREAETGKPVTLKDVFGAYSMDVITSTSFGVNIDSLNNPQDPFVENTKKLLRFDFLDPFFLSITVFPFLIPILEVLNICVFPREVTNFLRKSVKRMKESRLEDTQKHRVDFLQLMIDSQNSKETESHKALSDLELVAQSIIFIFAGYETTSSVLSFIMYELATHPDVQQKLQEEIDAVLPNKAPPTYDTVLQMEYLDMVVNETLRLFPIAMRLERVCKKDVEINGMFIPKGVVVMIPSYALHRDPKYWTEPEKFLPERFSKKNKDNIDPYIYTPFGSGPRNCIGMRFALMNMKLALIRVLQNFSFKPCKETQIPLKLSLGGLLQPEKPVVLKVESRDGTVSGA
Chain of Cytochrome P450 2C19 (P33261 whole entry): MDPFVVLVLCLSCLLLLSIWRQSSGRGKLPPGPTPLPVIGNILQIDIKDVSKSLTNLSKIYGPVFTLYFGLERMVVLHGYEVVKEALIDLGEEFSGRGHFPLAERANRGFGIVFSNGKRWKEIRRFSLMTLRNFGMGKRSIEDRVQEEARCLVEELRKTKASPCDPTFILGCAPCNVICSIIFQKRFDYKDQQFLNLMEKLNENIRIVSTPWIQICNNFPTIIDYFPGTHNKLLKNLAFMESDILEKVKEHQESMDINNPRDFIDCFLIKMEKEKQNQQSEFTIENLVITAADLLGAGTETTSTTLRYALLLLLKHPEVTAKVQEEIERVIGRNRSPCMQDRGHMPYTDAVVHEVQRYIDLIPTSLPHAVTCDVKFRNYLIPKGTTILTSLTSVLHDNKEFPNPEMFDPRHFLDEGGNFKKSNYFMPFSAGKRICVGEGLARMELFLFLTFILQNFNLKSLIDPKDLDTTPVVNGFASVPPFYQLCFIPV
Chain of Cytochrome P450 2C9 (P11712 whole entry): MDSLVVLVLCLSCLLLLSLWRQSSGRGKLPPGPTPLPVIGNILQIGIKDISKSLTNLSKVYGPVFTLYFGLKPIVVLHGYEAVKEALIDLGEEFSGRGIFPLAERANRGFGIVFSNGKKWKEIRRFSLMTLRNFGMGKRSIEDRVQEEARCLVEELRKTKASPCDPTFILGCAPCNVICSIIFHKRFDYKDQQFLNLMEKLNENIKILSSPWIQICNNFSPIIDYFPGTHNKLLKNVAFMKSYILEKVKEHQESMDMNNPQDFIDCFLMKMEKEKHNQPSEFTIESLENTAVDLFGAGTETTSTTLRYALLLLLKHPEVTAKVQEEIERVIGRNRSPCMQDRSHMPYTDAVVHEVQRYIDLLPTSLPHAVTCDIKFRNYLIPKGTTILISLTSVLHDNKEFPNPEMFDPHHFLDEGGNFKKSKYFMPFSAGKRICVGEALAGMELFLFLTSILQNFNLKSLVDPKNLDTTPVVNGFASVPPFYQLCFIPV

SMILES: COCCN(C(=O)COC(=O)C1CCC(C(C)(C)C)CC1)c1c(N)n(Cc2ccccc2)c(=O)[nH]c1=O (configuration not stated)
- AC50 (INS1): 2.34 µM (active)
- AC50 [1]: 5.15 µM (active)
- AC50 [2]: 43.1 µM (active)
- AC50 [3]: 4.83 µM (active)

SMILES: CCC(=O)c1ccc(OCC(O)Cn2c(C)nc3ccccc32)cc1 (configuration not stated)
- AC50 [1]: 2.28 µM (active)
- AC50 [2]: 49.9 µM (active)
- AC50 [3]: 14.1 µM (active)

SMILES: Cc1sc2nc(SCC(=O)N(C)C)nc(O)c2c1C
- IC50 (H9c2): 22.3 µM (active)

SMILES: CCN1C(=O)/C(=C\C=C\c2ccccc2[N+](=O)[O-])SC1=S
- IC50 [4]: > 47.1 µM (inactive)
- EC50 [5]: > 53 µM (inactive)

SMILES: CCC(C)N1C(=O)S/C(=C/c2ccc3c(c2)n(C)c(=O)n3C)C1=O (configuration not stated)
- IC50 (H9c2): > 79 µM (inactive)

SMILES: CN(C)c1ccc(-c2nc(NCCN3CCOCC3)c3ccccc3n2)cc1
- AC50 (Cytochrome P450 2C19; read-out: AC50): 39.8 µM (inconclusive)
- AC50 (Cytochrome P450 2D6): 25.1 µM (inconclusive)
- AC50 (Cytochrome P450 3A4): 12.6 µM (inconclusive)

SMILES: FC(F)Sc1ccc(NC2=NN=C(c3ccc4c(c3)OCCO4)CS2)cc1
- EC50 [6]: 1.99 µM (active)
- EC50 [7]: 6.72 µM (active)
- AC50 (INS1): 4.4 µM (active)
- AC50 (Cytochrome P450 2D6): 14.1 µM (inconclusive)
- AC50 (Cytochrome P450 1A2): 35.5 µM (inconclusive)

SMILES: O=C(Cc1cccs1)Nc1nc2c(ccc3ccccc32)s1
- IC50 [4]: > 47.1 µM (inactive)
- EC50 [5]: > 53 µM (inactive)

SMILES: CC(C)CCN(C(=O)CNC(=O)c1ccco1)C(C(=O)NC1CCCCC1)c1ccco1 (configuration not stated)
- IC50 (H9c2): 17.4 µM (active)

SMILES: CCOc1ccc(C(=O)NC(=S)N(Cc2ccccc2)Cc2ccccc2)cc1
- EC50 [8]: 2.46 µM (active)
- EC50 (Streptokinase A): > 150 µM (not active)
- EC50 (Streptococcus): 7.11 µM (active)
- AC50 (Cytochrome P450 2D6): 6.31 µM (inconclusive)

SMILES: Cc1ccc(C(=O)OCC(=O)c2cc(C)n(CC3CCCO3)c2C)cc1 (configuration not stated)
- IC50 [4]: > 47.1 µM (inactive)
- EC50 [5]: > 53 µM (inactive)

SMILES: COCCOC(=O)N/C=C\c1nc(O)c2ccccc2n1
- IC50 (H9c2): > 79 µM (inactive)

SMILES: CN(Cc1ccco1)c1ncnc2ccc(-c3cccc(C#N)c3)cc12
- AC50 (Cytochrome P450 2D6): 25.1 µM (inconclusive)
- AC50 (Cytochrome P450 3A4): 31.6 µM (inconclusive)
- AC50 (Cytochrome P450 2C9): 1.58 µM (inconclusive)

SMILES: CC(C)c1ccccc1-n1c(SCC(=O)N2CCc3ccccc3C2)nc2ccccc2c1=O
- AC50 (INS1): 2.44 µM (active)
- AC50 [1]: 2.99 µM (active)
- AC50 [2]: 55.4 µM (active)
- AC50 [3]: 3.83 µM (active)

SMILES: COc1cccc(C(=O)N(Cc2ccccc2)Cc2cc3cc4c(cc3nc2O)OCCO4)c1
- AC50 (Cytochrome P450 2D6): 0.224 µM (inconclusive)

SMILES: COc1cc(C(=O)Nc2ccc(NC(=O)c3cccc(Cl)c3)nc2)cc(OC)c1OC
- IC50 (H9c2): 8.67 µM (active)

SMILES: Cc1nnc(SCC(=O)N(C)Cc2ccccc2)nc1O
- IC50 [4]: > 47.1 µM (inactive)
- EC50 [5]: > 53 µM (inactive)

SMILES: CN(C)c1ncc(S(=O)(=O)c2ccc(Cl)cc2)c(-c2ccc(Cl)cc2Cl)n1
- IC50 [4]: > 47.1 µM (inactive)
- EC50 [5]: > 53 µM (inactive)

SMILES: CCOC(=O)C1=C(C)N=C(C)/C(=C(/O)OCC)C1C(=O)OCC(=O)NC1CCCCC1 (configuration not stated)
- IC50 (H9c2): 7.69 µM (active)

SMILES: CCCCn1c(N)c(N(CCC(C)C)C(=O)Cc2ccc(S(=O)(=O)N3CCOCC3)s2)c(=O)[nH]c1=O
- IC50 [4]: > 47.1 µM (inactive)
- EC50 [5]: > 53 µM (inactive)

SMILES: C[C@H]1CN([C@@H](C)CO)C(=O)Cc2cc(NS(C)(=O)=O)ccc2O[C@@H]1CN(C)Cc1ccc(Cl)c(Cl)c1
- IC50 [4]: > 47.1 µM (inactive)
- EC50 [5]: 40.7 µM (active)

SMILES: C=CCC[C@H](Cc1ccc(F)cc1)C(=O)OC[C@@H](Cc1c[nH]c2ccccc12)NC(=O)[C@@H](CC=C)CC(=O)NCCO
- IC50 (H9c2): > 79 µM (inactive)

SMILES: Cc1c(Cl)cccc1NC(=O)CNC(=O)Cc1nnc(O)c2ccccc12
- IC50 (H9c2): > 79 µM (inactive)

SMILES: COc1ccc(-c2ccc3c(c2)S(=O)(=O)c2cccc(C(=O)N4CCN(c5ccccn5)CC4)c2C3=O)cc1OC
- IC50 (H9c2): 15 µM (active)

SMILES: Cc1ccc(C(=O)N/C(=C\c2cn(C)c3ccccc23)C(=O)NCCCN2CCOCC2)cc1
- IC50 [4]: > 47.1 µM (inactive)
- EC50 [5]: > 53 µM (inactive)

SMILES: CCOc1ccc(S(=O)(=O)N2CCN(C(=O)c3ccncc3)CC2)cc1
- IC50 [4]: > 47.1 µM (inactive)
- EC50 [5]: > 53 µM (inactive)

SMILES: CC[C@@H]1CCCCc2ccccc2[C@H](C(=O)C[C@H](O)CC(C)=O)OC1=O
- IC50 [4]: > 47.1 µM (inactive)
- EC50 [5]: > 53 µM (inactive)

SMILES: O=c1c(O)c(-c2ccccc2)oc2cc(O)ccc12
- IC50 (H9c2): > 79 µM (inactive)

SMILES: O=c1c2cnn(-c3ccccc3)c2nnn1/N=C/c1cccnc1
- AC50 (Cytochrome P450 2C19): inconclusive
- AC50 (Cytochrome P450 2D6): 11.2 µM (inconclusive)
- AC50 (Cytochrome P450 1A2): 3.16 µM (inconclusive)

SMILES: COc1cc(OC)c(OC)cc1/C=N\CC1(c2ccccc2)CCCC1
- AC50 (Cytochrome P450 2D6): 28.2 µM (inconclusive)
- AC50 (Cytochrome P450 3A4): 25.1 µM (inconclusive)

SMILES: C[C@@H](O)C#Cc1ccc([C@H]2[C@H]3CN(S(=O)(=O)c4ccccc4)CCCCN3[C@H]2CO)cc1
- AC50 [9]: 7.37 µM (active)

SMILES: C[C@H]1CN([C@@H](C)CO)S(=O)(=O)c2ccc(C#Cc3ccccc3)cc2O[C@@H]1CN(C)S(=O)(=O)c1cn(C)cn1
- AC50 [9]: 3.95 µM (active)

SMILES: COc1ccc2c3c([nH]c2c1)[C@@H](CO)N(Cc1cc(F)ccc1F)CC31CN(C(=O)CN(C)C)C1
- AC50 [9]: 3.87 µM (active)

SMILES: COc1ccccc1CNCCCCCCNCCCCCCCCNCCCCCCNCc1ccccc1OC [METHOCTRAMINE]
- AC50 (Cytochrome P450 2D6): 31.6 µM (inconclusive)
- AC50 (Cytochrome P450 3A4): 10 µM (inconclusive)
